BindingDB's records for patent US20250263395 (Monte Rosa Therapeutics, 2025)

Target: Protein cereblon (Homo sapiens, UniProt Q96SW2)
Experiment: HTRF assay
Experimental: Biochemical assays were conducted in Greiner white 384 well HiBase plates (Cat. No 784075-25) in 10 μL total volume. A one pot detection solution of CRBN-DDB1 (2.5 nM), Anti-His Terbium Cryptate Gold (1×, PerkinElmer Cat. #: 61HI2TLB), and Cy5-Thalidomide (100 nM, Tenova Cat.: T52461) was prepared in 20 mM HEPES, 20 mM NaCl, 0.2 mM TCEP, 0.2 mM EDTA, and 0.005% Tween20 was dispensed to each assay plate. Compounds were stored in dry, ambient temperatures at 10 mM. A 10-point, 1:3 dilution series was prepared from 10 mM stock concentrations in Echo-compatible LDV plates. 10 nL of each compound dilution series was dispensed into assays wells using an Echo 650 (Labcyte inc. USA). 10 nL of 10 mM Lenalidomide was transferred into the active-control wells for the assay and 10 nL of DMSO was transferred into the neutral-control wells. The assay was then allowed to incubate for 30 min at ambient temperature after transferring compound. Plate measurements were taken on a Pherastar FSX (BMG Labtech, Germany) using the HTRF Red filter (Ex. 337 nm, em1: 620 nm, em2: 665 nm) (Flashes: 50, Integration time: 60-400 us, Z-height: 10 mm, Ratio-multiplier: 10,000).

Chain of Protein cereblon (Q96SW2 whole entry): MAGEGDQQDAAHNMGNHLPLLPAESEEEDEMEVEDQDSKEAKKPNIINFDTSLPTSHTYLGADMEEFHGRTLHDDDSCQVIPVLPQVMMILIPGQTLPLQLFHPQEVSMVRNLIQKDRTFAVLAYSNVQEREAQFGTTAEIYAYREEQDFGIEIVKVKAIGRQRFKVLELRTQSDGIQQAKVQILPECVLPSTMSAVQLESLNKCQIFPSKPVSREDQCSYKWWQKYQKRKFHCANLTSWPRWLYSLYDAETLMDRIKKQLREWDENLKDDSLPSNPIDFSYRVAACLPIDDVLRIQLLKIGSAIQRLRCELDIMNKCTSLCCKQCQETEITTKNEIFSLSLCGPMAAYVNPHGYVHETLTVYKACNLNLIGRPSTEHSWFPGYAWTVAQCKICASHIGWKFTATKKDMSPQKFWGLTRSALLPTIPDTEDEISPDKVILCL

Structure (SMILES)	Ki [nM]
O=C1CCC(c2c(F)cc(N3CC(NC(=O)OC4CN(C(=O)N5CCCC5)C4)C3)cc2F)C(=O)N1 (stereo not given) [US20250263395, Compound 32]	< 100
Cc1ccc(C)c(N(C)C(=O)C23CC(OC(=O)NC4CN(c5cc(F)c(C6CCC(=O)NC6=O)c(F)c5)C4)(C2)C3)c1 (stereo not given) [US20250263395, Compound 111]	< 100

Further lines, results first:

Ki [nM]	Structure (SMILES)
< 100	O=C1CCC(c2c(F)cc(N3CC(NC(=O)OCC4CC5(CCC5)C4)C3)cc2F)C(=O)N1 (stereo not given) [US20250263395, Compound 1]
< 100	Cc1ccnc(N2CC(OC(=O)NC3CN(c4cc(F)c(C5CCC(=O)NC5=O)c(F)c4)C3)C2)c1 (stereo not given) [US20250263395, Compound 6]
< 100	Cc1cccc(N(C)C(=O)N2CC(OC(=O)NC3CN(c4cc(F)c(C5CCC(=O)NC5=O)c(F)c4)C3)C2)c1 (stereo not given) [US20250263395, Compound 10]
